# Reference: article PMC4643811, “Structural basis of Lewis^b antigen binding by the Helicobacter pylori adhesin BabA” (Science Advances, 2015)
# Read-outs that look alike come from different tables or passages of the source.
# What was measured:
# [1] = target: T1, BabA (extracellular domain, H. pylori J99) (Helicobacter pylori, UniProt Q9ZKV2); experiment: isothermal titration calorimetry; assay type: binding
# T1 construct: N-terminal extracellular domain, amino acids 10-527 of mature BabA; three C-terminal tags (6xLys-c-Myc-6xHis) kept; periplasmic expression in E. coli XL10 Gold; beta-barrel membrane domain absent
# T1 sequence (Q9ZKV2 entry or part of it): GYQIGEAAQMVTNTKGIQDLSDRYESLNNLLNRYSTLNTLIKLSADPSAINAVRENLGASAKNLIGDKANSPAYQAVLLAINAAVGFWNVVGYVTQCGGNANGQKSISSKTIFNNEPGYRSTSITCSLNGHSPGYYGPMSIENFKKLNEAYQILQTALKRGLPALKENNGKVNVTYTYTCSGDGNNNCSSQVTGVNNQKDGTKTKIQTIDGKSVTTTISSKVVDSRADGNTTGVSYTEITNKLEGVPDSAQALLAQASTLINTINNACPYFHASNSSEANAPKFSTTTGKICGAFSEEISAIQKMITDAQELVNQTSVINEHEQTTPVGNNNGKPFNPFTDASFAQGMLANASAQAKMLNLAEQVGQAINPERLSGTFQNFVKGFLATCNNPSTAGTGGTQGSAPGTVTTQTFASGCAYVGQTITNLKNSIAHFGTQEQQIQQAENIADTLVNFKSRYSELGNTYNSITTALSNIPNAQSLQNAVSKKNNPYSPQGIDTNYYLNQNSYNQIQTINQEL
# [2] = target: BabA (extracellular domain, H. pylori J99) (Helicobacter pylori, UniProt Q9ZKV2, N226A); details: pH 7.4, 25°C; protein 0.25 mM, glycan 10 mM
# Chain of BabA (extracellular domain, H. pylori J99) (Helicobacter pylori, UniProt Q9ZKV2, N226A) (Q9ZKV2 30-547 N226A): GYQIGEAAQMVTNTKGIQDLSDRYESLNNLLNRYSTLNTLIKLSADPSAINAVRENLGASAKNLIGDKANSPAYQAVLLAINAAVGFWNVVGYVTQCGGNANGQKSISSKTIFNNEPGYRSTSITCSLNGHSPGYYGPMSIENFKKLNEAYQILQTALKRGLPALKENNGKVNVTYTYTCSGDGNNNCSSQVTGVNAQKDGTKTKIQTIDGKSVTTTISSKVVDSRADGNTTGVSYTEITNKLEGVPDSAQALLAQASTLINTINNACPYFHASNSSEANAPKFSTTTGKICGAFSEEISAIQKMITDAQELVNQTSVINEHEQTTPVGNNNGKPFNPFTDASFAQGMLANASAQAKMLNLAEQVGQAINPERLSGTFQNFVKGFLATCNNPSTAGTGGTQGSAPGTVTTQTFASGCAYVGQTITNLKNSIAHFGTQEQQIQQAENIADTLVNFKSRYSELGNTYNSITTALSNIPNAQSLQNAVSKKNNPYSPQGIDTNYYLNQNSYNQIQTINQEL
Compound,"Kd ([1]; pH 7.4, 20 mM tris-Cl, 300 mM NaCl, 25°C, single site) [µM]",Kd [2] [µM],"Kd ([1]; pH 7.4, 25°C, protein 0.25 mM, glycan 10 mM, read-out: KD) [µM]"
CC(=O)N[C@H]1[C@H](O[C@H]2[C@@H](O)[C@@H](CO)O[C@@H](O[C@H]3[C@H](O)[C@@H](O)C(O)O[C@@H]3CO)[C@@H]2O)O[C@H](CO)[C@@H](O[C@@H]2O[C@@H](C)[C@@H](O)[C@@H](O)[C@@H]2O)[C@@H]1O[C@@H]1O[C@H](CO)[C@H](O)[C@H](O)[C@H]1O[C@@H]1O[C@@H](C)[C@@H](O)[C@@H](O)[C@@H]1O (stereo partly drawn) [Le^b],~252,~582,–
H-1 antigen,–,–,~617
